Experimental findings from patent US11028079B2 (ConverGene LLC, priority 2015, dated 2021) are described below.

In this assay the target is T1, BRD4 bromodomains (Homo sapiens, UniProt O60885).
T1 construct: fused on or other part: T7 phage capsid protein (phage-display fusion; the phage DNA is read out by qPCR)
Description: BROMOscan bromodomain competition binding assay (DiscoveRx). As to conditions: Kd from 11 compound concentrations ranging from 0 to 10 μM, read-out: BROMOscan Relative Activity. The procedure: Bromodomain assays were conducted to measure interactions between certain compounds and bromodomains.
The assays were conducted according to BROMOscan protocol from Discover Rx. Briefly, BRD4 bromodomains expressed as a fusion capsid protein of T7 phage were bound to acetylated peptide ligand on a solid phase and competition bindings were performed. T7 phage strains displaying bromodomains were grown in parallel in 24-well blocks in an E. coli host derived from the BL21 strain. E. coli were grown to log-phase and infected with T7 phage from a frozen stock (multiplicity of infection=0.4) and incubated with shaking at 32° C. until lysis (90-150 minutes). The lysates were centrifuged (5,000×g) and filtered (0.2 μm) to remove cell debris. […] The liganded beads were blocked with excess biotin and washed with blocking buffer (SeaBlock (Pierce), 1% BSA, 0.05% Tween 20, 1 mM DTT) to remove unbound ligand and to reduce non-specific phage binding. […] Test compounds were prepared as 1000× stocks in 100% DMSO and subsequently diluted 1:10 in monoethylene glycol (MEG) to create stocks at 100× the screening concentration (resulting stock solution is 10% DMSO/90% MEG). The compounds were then diluted directly into the assays such that the final concentration of DMSO and MEG were 0.1% and 0.9%, respectively. All reactions were performed in polystyrene 96-well plates in a final volume of 0.135 ml. […] The bromodomain concentration in the eluates was measured by qPCR. Data was collected at 11 compound concentrations ranging from 0 to 10 μM. Kd values were then derived from a standard dose-response curve generated with Hill equation (Hill Slope was set to ˜1) and a non-linear least square fit with the Levenberg-Marquardt algorithm. Response=Background+Signal−Background/1+(Kd Hill Slope/Dose Hill Slope)

In the case of `Cc1noc(C)c1-c1ccc2nc(N3CCC(C)(C#N)CC3)nc(NCc3cncc(Cl)c3)c2c1` [Example 157, 1-(4-(((5-chloropyridin-3-yl)methyl)amino)-6-(3,5-dimethylisoxazol-4-yl)quinazolin-2-yl)-4-methylpiperidine-4-carbonitrile], the Kd is under 500 nM.
Then `Cc1noc(C)c1-c1ccc2nc(-c3ccc(CO)s3)nc(N3CCOC[C@@H]3c3ccccc3)c2c1` [Example 323, (S)-(5-(6-(3,5-dimethylisoxazol-4-yl)-4-(3-phenylmorpholino)quinazolin-2-yl)thiophen-2-yl)methanol], with 500 to 5000 nM.
With `Cc1noc(C)c1-c1ccc2nc(N3CCN(C(=O)CO)CC3)nc(NCc3cncc(Cl)c3)c2c1` [Example 132, 1-(4-(4-(((5-chloropyridin-3-yl)methyl)amino)-6-(3,5-dimethylisoxazol-4-yl)quinazolin-2-yl)piperazin-1-yl)-2-hydroxyethanone], the Kd was under 500 nM.
Then `Cc1noc(C)c1-c1ccc2nc(C(=O)NC3CCS(=O)(=O)CC3)nc(N3CCOC[C@@H]3c3ccccc3)c2c1` [Example 275, (S)-6-(3,5-dimethylisoxazol-4-yl)-N-(1,1-dioxidotetrahydro-2H-thiopyran-4-yl)-4-(3-phenylmorpholino)quinazoline-2-carboxamide], with under 500 nM; and `Cc1noc(C)c1-c1ccc2nc(N3CCN(CCN(C)C)CC3)nc(N3CCCC3c3ccccc3)c2c1` (stereo not shown) [Example 174, 2-(4-(6-(3,5-dimethylisoxazol-4-yl)-4-(2-phenylpyrrolidin-1-yl)quinazolin-2-yl)piperazin-1-yl)-N,N-dimethylethanamine], with under 500 nM.
Then `Cc1noc(C)c1-c1ccc2nc(NCc3ccc(Cl)cc3)nc(NCc3cccc(Cl)c3)c2c1` [Example 167, N4-(3-chlorobenzyl)-N2-(4-chlorobenzyl)-6-(3,5-dimethylisoxazol-4-yl)quinazoline-2,4-diamine], with over 5000 nM.
With `Cc1ccncc1NC(=O)c1nc(NCc2cccc(Cl)c2)c2cc(-c3c(C)noc3C)ccc2n1` [Example 220, 4-((3-chlorobenzyl)amino)-6-(3,5-dimethylisoxazol-4-yl)-N-(4-methylpyridin-3-yl)quinazoline-2-carboxamide], the Kd was under 500 nM.
Turning to `Cc1ccc(CNC(=O)c2nc(NCc3cccc(Cl)c3)c3cc(-c4c(C)noc4C)ccc3n2)cn1` [Example 197, 4-((3-chlorobenzyl)amino)-6-(3,5-dimethylisoxazol-4-yl)-N-((6-methylpyridin-3-yl)methyl)quinazoline-2-carboxamide], the Kd was under 500 nM.
On to `Cc1noc(C)c1-c1ccc2nc(-c3c(C)noc3C)nc(NCc3cccs3)c2c1` [Example 69, 2,6-bis(3,5-dimethylisoxazol-4-yl)-N-(thiophen-2-ylmethyl)quinazolin-4-amine], for which the Kd fell in the range of 500 to 5000 nM.
Then `Cn1cc(-c2ccc3nc(-c4cnn(CC(C)(C)O)c4)nc(N4CCOC[C@@H]4c4ccccc4)c3c2)ccc1=O` [Example 292, (S)-5-(2-(1-(2-hydroxy-2-methylpropyl)-1H-pyrazol-4-yl)-4-(3-phenylmorpholino)quinazolin-6-yl)-1-methylpyridin-2(1H)-one], with under 500 nM; and `Cc1noc(C)c1-c1ccc2nc(-c3cnn(CCN4CCOCC4)c3)nc(NCc3cccc(Cl)c3)c2c1` [Example 28, N-(3-chlorobenzyl)-6-(3,5-dimethylisoxazol-4-yl)-2-(1-(2-morpholinoethyl)-1H-pyrazol-4-yl)quinazolin-4-amine], with under 500 nM.
Then `Cc1cnc(CNC(=O)c2nc(NCc3cccc(Cl)c3)c3cc(-c4c(C)noc4C)ccc3n2)o1` [Example 216, 4-((3-chlorobenzyl)amino)-6-(3,5-dimethylisoxazol-4-yl)-N-((5-methyloxazol-2-yl)methyl)quinazoline-2-carboxamide], with under 500 nM; and `Cc1noc(C)c1-c1ccc2nc(N3CCN(CCN(C)C)CC3)cc(NCc3cccc(Cl)c3)c2c1` [Example 26, N-(3-chlorobenzyl)-2-(4-(2-(dimethylamino)ethyl)piperazin-1-yl)-6-(3,5-dimethylisoxazol-4-yl)quinolin-4-amine], with under 500 nM.
On to `Cc1noc(C)c1-c1ccc2nc(C(=O)NCC3CC(F)(F)C3)nc(NCc3cccc(Cl)c3)c2c1` [Example 256, 4-((3-chlorobenzyl)amino)-N-((3,3-difluorocyclobutyl)methyl)-6-(3,5-dimethylisoxazol-4-yl)quinazoline-2-carboxamide], for which the Kd fell in the range of 500 to 5000 nM.
For `Cc1noc(C)c1-c1ccc2nc(N3CCC(C)(C#N)CC3)nc(NCc3cccc(Cl)c3)c2c1` [Example 156, 1-(4-((3-chlorobenzyl)amino)-6-(3,5-dimethylisoxazol-4-yl)quinazolin-2-yl)-4-methylpiperidine-4-carbonitrile], the Kd fell in the range of 500 to 5000 nM.
`Cc1noc(C)c1-c1ccc2nc(C3=CCN(S(C)(=O)=O)CC3)nc(NCc3cccc(Cl)c3)c2c1` [Example 210, N-(3-chlorobenzyl)-6-(3,5-dimethylisoxazol-4-yl)-2-(1-(methylsulfonyl)-1,2,3,6-tetrahydropyridin-4-yl)quinazolin-4-amine]: the Kd is 500 to 5000 nM.
In the case of `Cc1noc(C)c1-c1ccc2nc(N3CCN(C[C@H](C)O)CC3)nc(NCc3cccc(Cl)c3)c2c1` [Example 47, (S)-1-(4-(4-((3-chlorobenzyl)amino)-6-(3,5-dimethylisoxazol-4-yl)quinazolin-2-yl)piperazin-1-yl)propan-2-ol], the Kd was under 500 nM.
Then `Cc1noc(C)c1-c1ccc2nc(N3CCN(C(=O)C4CC4)CC3)nc(NCc3cccc(Cl)c3)c2c1` [Example 17, (4-(4-((3-chlorobenzyl)amino)-6-(3,5-dimethylisoxazol-4-yl)quinazolin-2-yl)piperazin-1-yl)(cyclopropyl)methanone], with under 500 nM; and `Cc1noc(C)c1-c1ccc2nc(C(=O)N3CCC4(CC3)CC(O)C4)nc(N3CCOC[C@@H]3c3ccccc3)c2c1` [Example 316, (S)-(6-(3,5-dimethylisoxazol-4-yl)-4-(3-phenylmorpholino)quinazolin-2-yl)(2-hydroxy-7-azaspiro[3.5]nonan-7-yl)methanone], with 500 to 5000 nM.
The figure for `Cc1noc(C)c1-c1ccc2nc(N3CCCN(CCN(C)C)CC3)nc(NCc3cccc(Cl)c3)c2c1` [Example 32, N-(3-chlorobenzyl)-2-(4-(2-(dimethylamino)ethyl)-1,4-diazepan-1-yl)-6-(3,5-dimethylisoxazol-4-yl)quinazolin-4-amine] is under 500 nM; for `Cc1n[nH]c(C)c1-c1ccc2nc(N3CCN(CCN(C)C)CC3)nc(NCc3cccc(Cl)c3)c2c1` [Example 65, N-(3-chlorobenzyl)-6-(3,5-dimethyl-1H-pyrazol-4-yl)-2-(4-(2-(dimethylamino)ethyl)piperazin-1-yl)quinazolin-4-amine] it is 500 to 5000 nM; for `Cn1cc(-c2ccc3nc(N4CCN(CC(C)(C)O)CC4)nc(NCc4cncc(Cl)c4)c3c2)ccc1=O` [Example 135, 5-(4-(((5-chloropyridin-3-yl)methyl)amino)-2-(4-(2-hydroxy-2-methylpropyl)piperazin-1-yl)quinazolin-6-yl)-1-methylpyridin-2(1H)-one] it is under 500 nM.
The figure for `Cc1noc(C)c1-c1ccc2nc(C(=O)NC3CCN(C)CC3)nc(N3CCOC[C@@H]3c3ccccc3)c2c1` [Example 280, (S)-6-(3,5-dimethylisoxazol-4-yl)-N-(1-methylpiperidin-4-yl)-4-(3-phenylmorpholino)quinazoline-2-carboxamide] is under 500 nM; for `Cc1noc(C)c1-c1ccc2nc(N3CCCCC3CO)nc(NCc3cccc(Cl)c3)c2c1` (stereo not shown) [Example 25, (1-(4-((3-chlorobenzyl)amino)-6-(3,5-dimethylisoxazol-4-yl)quinazolin-2-yl)piperidin-2-yl)methanol] it is 500 to 5000 nM.
As for `Cc1noc(C)c1-c1ccc2nc(-c3cnn(C4CNC4)c3)nc(N3CCOC[C@@H]3c3ccccc3)c2c1` [Example 326, (S)-4-(2-(1-(azetidin-3-yl)-1H-pyrazol-4-yl)-6-(3,5-dimethylisoxazol-4-yl)quinazolin-4-yl)-3-phenylmorpholine], the Kd was under 500 nM.
Then `CNC(=O)C1CCN(c2ncnc3ccc(-c4c(C)noc4C)cc23)CC1` [Example 270, 1-(6-(3,5-dimethylisoxazol-4-yl)quinazolin-4-yl)-N-methylpiperidine-4-carboxamide], with under 500 nM; and `Cc1noc(C)c1-c1ccc2nc(N3CCN(CCN(C)C)CC3)nc(NCc3cccc(F)c3)c2c1` [Example 77, 2-(4-(2-(dimethylamino)ethyl)piperazin-1-yl)-6-(3,5-dimethylisoxazol-4-yl)-N-(3-fluorobenzyl)quinazolin-4-amine], with under 500 nM; and `Cc1nc(CNC(=O)c2nc(NCc3cccc(Cl)c3)c3cc(-c4c(C)noc4C)ccc3n2)cs1` [Example 196, 4-((3-chlorobenzyl)amino)-6-(3,5-dimethylisoxazol-4-yl)-N-((2-methylthiazol-4-yl)methyl)quinazoline-2-carboxamide], with under 500 nM.
